Tests used:
[1] = refractive index (Na D-line) (dimensionless); details: 101.33 kPa, Liquid
[2] = 101 kPa, Liquid
[3] = refractive index (Na D-line) (dimensionless); xn = mol fraction of the nth substance listed; details: 101 kPa, Liquid
[4] = xn = mol fraction of the nth substance listed; details: 101 kPa, Liquid

Cc1ccc(C)cc1 [1,4-dimethylbenzene]
Details | mass density, 288.15 K [kg/m3] | mass density, 293.15 K [kg/m3] | mass density, 298.15 K [kg/m3] | mass density, 303.15 K [kg/m3] | refractive index, 288.15 K | refractive index, 293.15 K | refractive index, 298.15 K | refractive index, 303.15 K
[1] | – | – | – | – | 1.4983 | 1.4958 | 1.4929 | 1.4915
[2] | 865.25 | 860.92 | 856.62 | 852.25 | – | – | – | –

Cc1cc(C)cc(C)c1 [1,3,5-trimethylbenzene]
Details | mass density, 288.15 K [kg/m3] | mass density, 293.15 K [kg/m3] | mass density, 298.15 K [kg/m3] | mass density, 303.15 K [kg/m3] | refractive index, 288.15 K | refractive index, 293.15 K | refractive index, 298.15 K | refractive index, 303.15 K
[1] | – | – | – | – | 1.5045 | 1.4993 | 1.4976 | 1.4948
[2] | 869.17 | 865.07 | 861.06 | 856.95 | – | – | – | –

Cc1cccc(C)c1 [1,3-dimethylbenzene]
Details | mass density, 288.15 K [kg/m3] | mass density, 293.15 K [kg/m3] | mass density, 298.15 K [kg/m3] | mass density, 303.15 K [kg/m3] | refractive index, 288.15 K | refractive index, 293.15 K | refractive index, 298.15 K | refractive index, 303.15 K
[1] | – | – | – | – | 1.4997 | 1.4973 | 1.4944 | 1.4925
[2] | 868.32 | 864.05 | 859.77 | 855.47 | – | – | – | –

Cc1ccccc1 [toluene]
Details | mass density, 288.15 K [kg/m3] | mass density, 293.15 K [kg/m3] | mass density, 298.15 K [kg/m3] | mass density, 303.15 K [kg/m3] | refractive index, 288.15 K | refractive index, 293.15 K | refractive index, 298.15 K | refractive index, 303.15 K
[1] | – | – | – | – | 1.4996 | 1.497 | 1.4944 | 1.4918
[2] | 871.41 | 866.87 | 862.2 | 857.46 | – | – | – | –

COc1ccccc1 [anisole] + c1ccccc1
Details | mass density, 288.15 K [kg/m3] | mass density, 293.15 K [kg/m3] | mass density, 298.15 K [kg/m3] | mass density, 303.15 K [kg/m3] | refractive index, 288.15 K | refractive index, 293.15 K | refractive index, 298.15 K | refractive index, 303.15 K
[3], x1 = 0.105 | – | – | – | – | 1.5076 | 1.5032 | 1.5001 | 1.4884
[3], x1 = 0.201 | – | – | – | – | 1.51 | 1.5051 | 1.5019 | 1.4914
[3], x1 = 0.3173 | – | – | – | – | 1.5127 | 1.5072 | 1.5041 | 1.4949
[3], x1 = 0.4192 | – | – | – | – | 1.5149 | 1.509 | 1.5058 | 1.4978
[3], x1 = 0.5126 | – | – | – | – | 1.5168 | 1.5105 | 1.5074 | 1.5003
[3], x1 = 0.6139 | – | – | – | – | 1.5188 | 1.5121 | 1.5089 | 1.5029
[3], x1 = 0.7067 | – | – | – | – | 1.5206 | 1.5134 | 1.5103 | 1.5052
[3], x1 = 0.797 | – | – | – | – | 1.5222 | 1.5147 | 1.5115 | 1.5073
[3], x1 = 0.9002 | – | – | – | – | 1.524 | 1.516 | 1.5129 | 1.5096
[3], x1 = 1 | – | – | – | – | 1.5256 | 1.5172 | 1.5141 | 1.5117
[4], x1 = 0.105 | 898.53 | 891.31 | 888.2 | 882.91 | – | – | – | –
[4], x1 = 0.201 | 911.14 | 904.23 | 900.97 | 895.75 | – | – | – | –
[4], x1 = 0.3173 | 925.73 | 919.17 | 915.76 | 910.6 | – | – | – | –
[4], x1 = 0.4192 | 937.94 | 931.66 | 928.1 | 923 | – | – | – | –
[4], x1 = 0.5126 | 948.66 | 942.64 | 938.93 | 933.89 | – | – | – | –
[4], x1 = 0.6139 | 959.83 | 954.08 | 950.21 | 945.24 | – | – | – | –
[4], x1 = 0.7067 | 969.67 | 964.17 | 960.12 | 955.22 | – | – | – | –
[4], x1 = 0.797 | 978.88 | 973.61 | 969.41 | 964.57 | – | – | – | –
[4], x1 = 0.9002 | 989.01 | 983.99 | 979.62 | 974.85 | – | – | – | –
[4], x1 = 1 | 998.44 | 993.65 | 989.15 | 984.37 | – | – | – | –

Reference: the NIST ThermoML archive (doi:10.1016/j.jct.2006.02.001)
